# Measured values published in patent publication US20070128217A1 (priority 2003, published 2007).
# Experiments:
# [1] = system: antibodies in sera from SARS patients (sera 1a, 1b, 2, 6, 37, 62, London, SARS-yellow, SARS-green); format: binding, human; design: Binding of serum 6 to linear peptides of protein X1 of SARS-CoV Urbani / Binding of serum 37 to linear peptides of protein X1 of SARS-CoV Urbani / Binding of serum 6 to looped/cyclic peptide (PEPSCAN-ELISA) / Binding of serum 37 to looped/cyclic peptide (PEPSCAN-ELISA) / Binding of serum 37 to looped/cyclic peptides of protein X1 of SARS-CoV Urbani / Binding of serum 6 to linear peptides of protein X2 / Binding of serum 37 to linear peptides of protein X2 / Binding of serum 37 to looped/cyclic peptides of protein X2 of SARS-CoV Urbani / Binding of serum 6 to linear peptides of protein M of SARS-CoV Urbani / Binding of serum 37 to linear peptides of protein M of SARS-CoV Urbani / Binding of serum 6 to looped/cyclic peptides of protein M of SARS-CoV Urbani / Binding of serum 37 to looped/cyclic peptides of protein M of SARS-CoV Urbani / Binding of serum 6 to linear peptides of protein X3 of SARS-CoV Urbani / Binding of serum 37 to linear peptides of protein X3 of SARS-CoV Urbani / Binding of serum 37 to looped/cyclic peptides of protein X3 of SARS-CoV Urbani / Binding of serum 6 to linear peptides of protein X4 of SARS-CoV Urbani / Binding of serum 37 to linear peptides of protein X4 of SARS-CoV Urbani / Binding of serum 37 to looped/cyclic peptides of protein X4 of SARS-CoV Urbani / Binding of serum 6 to linear peptides of protein X5 of SARS-CoV Urbani / Binding of serum 37 to linear peptides of protein X5 of SARS-CoV Urbani / Binding of serum 37 to looped/cyclic peptides of protein X5 of SARS-CoV Urbani / Binding of serum 6 to linear peptides of protein N of SARS-CoV Urbani / Binding of serum 37 to linear peptides of protein N of SARS-CoV Urbani / Binding of serum 6 to linear peptide (PEPSCAN-ELISA) / Binding of serum 1a to looped/cyclic peptides of protein N of SARS-CoV Urbani / Binding of serum 1b to looped/cyclic peptides of protein N of SARS-CoV Urbani / Binding of serum 2 to looped/cyclic peptides of protein N of SARS-CoV Urbani / Binding of serum 6 to looped/cyclic peptides of protein N of SARS-CoV Urbani / Binding of serum 37 to looped/cyclic peptides of protein N of SARS-CoV Urbani / Binding of serum 62 to looped/cyclic peptides of protein N of SARS-CoV Urbani / Binding of serum London to looped/cyclic peptides of protein N of SARS-CoV Urbani / Binding of serum SARS-green to looped/cyclic peptides of protein N of SARS-CoV Urbani: unit not given here
# [2] = system: control sera (pooled serum of ten healthy LUMC hospital workers; commercial negative donor pooled serum from the Dutch bloodbank); format: binding, human; design: Binding of Control serum LUMC to linear peptides / Binding of Control serum Blood-bank to linear peptides / Binding of Control serum LUMC to looped peptides / Binding of Control Serum Blood-Bank to Looped peptides / Binding of Control serum LUMC to linear peptides of the protein M of SARS-CoV Urbani / Binding of Control serum Blood-bank to linear peptides of the protein M of SARS-CoV Urbani / Binding of Control serum LUMC to looped peptides of the protein M of SARS-CoV Urbani / Binding of Control Serum Blood-Bank to Looped peptides of the protein M of SARS-CoV Urbani: unit not given here
# [3] = system: rabbit serum obtained by immunizing a rabbit with the SARS-CoV strain Frankfurt 1; format: binding; design: Binding of a rabbit serum to linear peptides / Binding of a rabbit serum to looped peptides / Rabbit serum linear peptides / Rabbit serum looped peptides / Binding of a rabbit serum to linear peptides of protein N of SARS-CoV Urbani (Rabbit serum linear peptides) / Binding of a rabbit serum to looped/cyclic peptides of protein N of SARS-CoV Urbani (Rabbit serum looped peptides): unit not given here
sequence,measurement,setting,value
AALVFLILCFTIKRK,Binding of serum 1a to linear peptides of protein X4 of SARS-CoV Urbani,[1],0.7
same,Binding of serum 1a to looped/cyclic peptides of protein X4 of SARS-CoV Urbani,[1],0.8
same,Binding of serum 1b to linear peptides of protein X4 of SARS-CoV Urbani,[1],0.8
same,Binding of serum 1b to looped/cyclic peptides of protein X4 of SARS-CoV Urbani,[1],0.5
same,Binding of serum 2 to linear peptides of protein X4 of SARS-CoV Urbani,[1],0.6
same,Binding of serum 2 to looped/cyclic peptides of protein X4 of SARS-CoV Urbani,[1],0.7
same,Binding of serum 6 to linear peptides of protein X4 of SARS-CoV Urbani,[1],0.8
same,Binding of serum 6 to looped/cyclic peptides of protein X4 of SARS-CoV Urbani,[1],0.7
same,Binding of serum 37 to linear peptides of protein X4 of SARS-CoV Urbani,[1],0.8
same,Binding of serum 37 to looped/cyclic peptides of protein X4 of SARS-CoV Urbani,[1],0.6
same,Binding of serum 62 to linear peptides of protein X4 of SARS-CoV Urbani,[1],0.8
same,Binding of serum 62 to looped/cyclic peptides of protein X4 of SARS-CoV Urbani,[1],0.7
same,Binding of serum London to linear peptides of protein X4 of SARS-CoV Urbani,[1],0.8
same,Binding of serum London to looped/cyclic peptides of protein X4 of SARS-CoV Urbani,[1],0.5
same,Binding of serum SARS-green to linear peptides of protein X4 of SARS-CoV Urbani,[1],0.7
same,Binding of serum SARS-green to looped/cyclic peptides of protein X4 of SARS-CoV Urbani,[1],0.4
same,Binding of serum SARS-yellow to linear peptides of protein X4 of SARS-CoV Urbani,[1],0.7
same,Binding of serum SARS-yellow to looped/cyclic peptides of protein X4 of SARS-CoV Urbani,[1],0.5
same,Binding of Control Serum Blood-Bank to Looped peptides,[2],0.8
same,Binding of Control serum Blood-bank to linear peptides,[2],0.9
same,Binding of Control serum LUMC to linear peptides,[2],0.7
same,Binding of Control serum LUMC to looped peptides,[2],0.6
same,Rabbit serum linear peptides,[3],0.8
same,Rabbit serum looped peptides,[3],0.6
AAVYRINWVTGGIAI,Binding of serum 1a to linear peptides of protein M of SARS-CoV Urbani,[1],0.9
same,Binding of serum 1a to looped/cyclic peptides of protein M of SARS-CoV Urbani,[1],0.6
same,Binding of serum 1b to linear peptides of protein M of SARS-CoV Urbani,[1],0.7
same,Binding of serum 1b to looped/cyclic peptides of protein M of SARS-CoV Urbani,[1],0.4
same,Binding of serum 2 to linear peptides of protein M of SARS-CoV Urbani,[1],0.7
same,Binding of serum 2 to looped/cyclic peptides of protein M of SARS-CoV Urbani,[1],0.6
same,Binding of serum 6 to linear peptides of protein M of SARS-CoV Urbani,[1],0.5
same,Binding of serum 6 to looped/cyclic peptides of protein M of SARS-CoV Urbani,[1],0.5
same,Binding of serum 37 to linear peptides of protein M of SARS-CoV Urbani,[1],0.6
same,Binding of serum 37 to looped/cyclic peptides of protein M of SARS-CoV Urbani,[1],0.7
same,Binding of serum 62 to linear peptides of protein M of SARS-CoV Urbani,[1],0.5
same,Binding of serum 62 to looped/cyclic peptides of protein M of SARS-CoV Urbani,[1],0.4
same,Binding of serum London to linear peptides of protein M of SARS-CoV Urbani,[1],0.4
same,Binding of serum London to looped/cyclic peptides of protein M of SARS-CoV Urbani,[1],0.2
same,Binding of serum SARS-green to linear peptides of protein M of SARS-CoV Urbani,[1],0.6
same,Binding of serum SARS-green to looped/cyclic peptides of protein M of SARS-CoV Urbani,[1],0.0
same,Binding of serum SARS-yellow to linear peptides of protein M of SARS-CoV Urbani,[1],0.3
same,Binding of serum SARS-yellow to looped/cyclic peptides of protein M of SARS-CoV Urbani,[1],0.7
same,Binding of Control Serum Blood-Bank to Looped peptides of the protein M of SARS-CoV Urbani,[2],0.8
same,Binding of Control serum Blood-bank to linear peptides of the protein M of SARS-CoV Urbani,[2],0.8
same,Binding of Control serum LUMC to linear peptides of the protein M of SARS-CoV Urbani,[2],1.0
same,Binding of Control serum LUMC to looped peptides of the protein M of SARS-CoV Urbani,[2],0.5
same,Rabbit serum linear peptides,[3],0.4
same,Rabbit serum looped peptides,[3],0.4
AAYNRYRIGNYKLNT,Binding of serum 1a to linear peptides of protein M of SARS-CoV Urbani,[1],0.7
same,Binding of serum 1a to looped/cyclic peptides of protein M of SARS-CoV Urbani,[1],0.7
same,Binding of serum 1b to linear peptides of protein M of SARS-CoV Urbani,[1],0.5
same,Binding of serum 1b to looped/cyclic peptides of protein M of SARS-CoV Urbani,[1],0.5
same,Binding of serum 2 to linear peptides of protein M of SARS-CoV Urbani,[1],0.7
same,Binding of serum 2 to looped/cyclic peptides of protein M of SARS-CoV Urbani,[1],0.8
same,Binding of serum 6 to linear peptides of protein M of SARS-CoV Urbani,[1],0.8
same,Binding of serum 6 to looped/cyclic peptides of protein M of SARS-CoV Urbani,[1],1.3
same,Binding of serum 37 to linear peptides of protein M of SARS-CoV Urbani,[1],0.6
same,Binding of serum 37 to looped/cyclic peptides of protein M of SARS-CoV Urbani,[1],0.5
same,Binding of serum 62 to linear peptides of protein M of SARS-CoV Urbani,[1],0.5
same,Binding of serum 62 to looped/cyclic peptides of protein M of SARS-CoV Urbani,[1],0.7
same,Binding of serum London to linear peptides of protein M of SARS-CoV Urbani,[1],0.4
same,Binding of serum London to looped/cyclic peptides of protein M of SARS-CoV Urbani,[1],0.5
same,Binding of serum SARS-green to linear peptides of protein M of SARS-CoV Urbani,[1],0.5
same,Binding of serum SARS-green to looped/cyclic peptides of protein M of SARS-CoV Urbani,[1],0.3
same,Binding of serum SARS-yellow to linear peptides of protein M of SARS-CoV Urbani,[1],0.2
same,Binding of serum SARS-yellow to looped/cyclic peptides of protein M of SARS-CoV Urbani,[1],0.7
same,Binding of Control Serum Blood-Bank to Looped peptides of the protein M of SARS-CoV Urbani,[2],0.8
same,Binding of Control serum Blood-bank to linear peptides of the protein M of SARS-CoV Urbani,[2],0.9
same,Binding of Control serum LUMC to linear peptides of the protein M of SARS-CoV Urbani,[2],0.8
same,Binding of Control serum LUMC to looped peptides of the protein M of SARS-CoV Urbani,[2],0.7
same,Rabbit serum linear peptides,[3],0.4
same,Rabbit serum looped peptides,[3],0.6
ACADGTRHTYQLRAR,Binding of serum 1a to linear peptides of protein X4 of SARS-CoV Urbani,[1],0.7
same,Binding of serum 1a to looped/cyclic peptides of protein X4 of SARS-CoV Urbani,[1],0.7
same,Binding of serum 1b to linear peptides of protein X4 of SARS-CoV Urbani,[1],0.6
same,Binding of serum 1b to looped/cyclic peptides of protein X4 of SARS-CoV Urbani,[1],0.3
same,Binding of serum 2 to linear peptides of protein X4 of SARS-CoV Urbani,[1],0.5
same,Binding of serum 2 to looped/cyclic peptides of protein X4 of SARS-CoV Urbani,[1],0.6
same,Binding of serum 6 to linear peptides of protein X4 of SARS-CoV Urbani,[1],0.6
same,Binding of serum 6 to looped/cyclic peptides of protein X4 of SARS-CoV Urbani,[1],0.6
same,Binding of serum 37 to linear peptides of protein X4 of SARS-CoV Urbani,[1],0.7
same,Binding of serum 37 to looped/cyclic peptides of protein X4 of SARS-CoV Urbani,[1],0.7
same,Binding of serum 62 to linear peptides of protein X4 of SARS-CoV Urbani,[1],0.8
same,Binding of serum 62 to looped/cyclic peptides of protein X4 of SARS-CoV Urbani,[1],0.6
same,Binding of serum London to linear peptides of protein X4 of SARS-CoV Urbani,[1],0.7
same,Binding of serum London to looped/cyclic peptides of protein X4 of SARS-CoV Urbani,[1],0.3
same,Binding of serum SARS-green to linear peptides of protein X4 of SARS-CoV Urbani,[1],0.7
same,Binding of serum SARS-green to looped/cyclic peptides of protein X4 of SARS-CoV Urbani,[1],0.5
same,Binding of serum SARS-yellow to linear peptides of protein X4 of SARS-CoV Urbani,[1],0.5
same,Binding of serum SARS-yellow to looped/cyclic peptides of protein X4 of SARS-CoV Urbani,[1],0.5
same,Binding of Control Serum Blood-Bank to Looped peptides,[2],0.5
same,Binding of Control serum Blood-bank to linear peptides,[2],0.6
same,Binding of Control serum LUMC to linear peptides,[2],0.6
same,Binding of Control serum LUMC to looped peptides,[2],0.5
same,Recognition of the peptide by the rabbit serum,[3],recognized
